In brackets after ≈: the same amount, converted by molar mass.
Assays:
M. tuberculosis H37Rv = test: microplate Alamar Blue assay; type: cell-based; conditions: Mycobacterium tuberculosis
M. tuberculosis [1] = type: cell-based
MtThyX = MtThyX (Mycobacterium tuberculosis, UniProt P9WG57); test: cell-free ThyA and ThyX enzyme inhibition assay; type: biochemical, M. tuberculosis
P. mirabilis = test: MIC, Gram-negative panel; type: cell-based
M. avium = test: broth microdilution, A570 readout, non-tuberculosis mycobacteria; type: cell-based
B. cereus 10987 = test: MIC, Gram-positive panel; type: cell-based
B. subtilis = test: MIC, Gram-positive panel; type: cell-based
[2] = target: M. tuberculosis ThyA (MtThyA) (Mycobacterium tuberculosis, UniProt P9WFR9); test: cell-free ThyA and ThyX enzyme inhibition assay; type: biochemical
Caco-2 = Caco-2 bidirectional permeability; type: in vitro ADME; conditions: Caco-2, 5 μM
M. marinum = test: broth microdilution, A570 readout, non-tuberculosis mycobacteria; type: cell-based
E. cloacae = test: MIC, Gram-negative panel; type: cell-based
B. thuringiensis = test: MIC, Gram-positive panel; type: cell-based
E. faecalis = test: MIC, Gram-positive panel; type: cell-based
[3] = system: VRE (Vancomycin-resistant E. faecium); test: MIC, Gram-positive panel; type: cell-based
S. pyogenes = test: MIC, Gram-positive panel; type: cell-based
solubility = type: physicochemical; conditions: current study
M. smegmatis = test: broth microdilution, A570 readout, non-tuberculosis mycobacteria; type: cell-based
M. bovis BCG = type: cell-based
[4] = 100 mg/kg intraperitoneally; deposited solid residues; cited from earlier work
B. cereus 14579 = test: MIC, Gram-positive panel; type: cell-based
E. coli = test: MIC, Gram-negative panel; type: cell-based
M. kansasii = test: broth microdilution, A570 readout, non-tuberculosis mycobacteria; type: cell-based
K. pneumoniae = test: MIC, Gram-negative panel; type: cell-based
E. faecium = test: MIC, Gram-positive panel; type: cell-based
S. pneumoniae = test: MIC, Gram-positive panel; type: cell-based
[5] = liver microsome stability; type: in vitro ADME; conditions: 1 μM, 30 min, 0.5 mg/mL human liver microsomes
M. tuberculosis [6] = test: LORA MBC99, hypoxic; type: cell-based, Mycobacterium tuberculosis; conditions: hypoxic conditions (LORA)
B. anthracis = type: cell-based
[7] = target: thymidylate synthase (E. faecium); conditions: competitive with coenzyme 5,10-methylenetetrahydrofolate; cited from earlier work
P. aeruginosa = test: MIC, Gram-negative panel; type: cell-based
A. baumannii = test: MIC, Gram-negative panel; type: cell-based
M. chelonae = test: broth microdilution, A570 readout, non-tuberculosis mycobacteria; type: cell-based
M. abscessus = test: as above; type: cell-based
[8] = liver microsome stability; type: in vitro ADME; conditions: 1 μM, 30 min, 0.5 mg/mL mouse liver microsomes
human ThyA (HsThyA) = human ThyA (HsThyA) (Homo sapiens, UniProt P04818); test: cell-free ThyA and ThyX enzyme inhibition assay; type: biochemical; conditions: purified HsThyA, inhibitor 13 μM, compared to positive control 1843U89
Micrococcus luteus = conditions: cited from earlier work
[9] = system: Streptococcus faecium IFO3181; conditions: cited from earlier work
[10] = in vivo tolerance assessment, oral gavage; parameters: species or system female BALB/c mice; conditions: 100 mg/kg daily by oral gavage for 5 days, uninfected mice
[11] = system: Staphylococcus aureus strains (FDA209P, ATCC6538P, KB199); conditions: three Staphylococcus aureus strains (FDA209P, ATCC6538P, KB199); cited from earlier work
[12] = system: nonreplicating M. tuberculosis H37Rv; type: cell-based, Mycobacterium tuberculosis
[13] = previous study ref 18; cited from earlier work

Chain of human ThyA (HsThyA) (P04818 whole entry): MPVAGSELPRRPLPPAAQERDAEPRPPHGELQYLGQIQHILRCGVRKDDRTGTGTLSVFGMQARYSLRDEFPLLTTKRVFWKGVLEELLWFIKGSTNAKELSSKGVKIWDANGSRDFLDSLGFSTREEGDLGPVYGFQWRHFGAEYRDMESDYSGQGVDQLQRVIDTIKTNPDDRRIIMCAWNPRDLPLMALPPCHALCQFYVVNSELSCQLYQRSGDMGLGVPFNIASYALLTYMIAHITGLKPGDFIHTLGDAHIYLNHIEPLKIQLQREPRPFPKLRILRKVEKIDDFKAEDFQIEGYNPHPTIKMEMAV
Chain of M. tuberculosis ThyA (MtThyA) (P9WFR9 whole entry): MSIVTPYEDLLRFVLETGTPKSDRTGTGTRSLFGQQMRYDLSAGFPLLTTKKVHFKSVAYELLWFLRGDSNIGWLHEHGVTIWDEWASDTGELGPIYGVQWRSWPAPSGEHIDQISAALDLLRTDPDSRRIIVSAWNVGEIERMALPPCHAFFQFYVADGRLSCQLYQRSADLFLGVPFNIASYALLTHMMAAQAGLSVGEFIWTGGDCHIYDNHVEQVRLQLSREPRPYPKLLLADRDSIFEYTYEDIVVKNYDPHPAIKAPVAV
Chain of MtThyX (P9WG57 whole entry): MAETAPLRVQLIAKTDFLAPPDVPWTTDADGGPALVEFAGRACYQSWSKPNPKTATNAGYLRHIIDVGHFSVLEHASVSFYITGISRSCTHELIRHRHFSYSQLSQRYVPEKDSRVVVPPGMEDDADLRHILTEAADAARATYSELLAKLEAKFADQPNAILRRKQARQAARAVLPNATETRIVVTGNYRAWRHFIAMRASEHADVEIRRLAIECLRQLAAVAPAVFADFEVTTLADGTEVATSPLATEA

SMILES: O=[N+]([O-])c1cn2c(n1)OC[C@@H](OCc1ccc(OC(F)(F)F)cc1)C2 [PA824]
- MIC (M. tuberculosis H37Rv): 0.01 µg/mL (≈ 0.0278 µM)

SMILES: CCCc1c2c([nH]c(=O)c1C)C(=O)c1[nH]c(=O)c(C)c(CCC)c1C2=O [Compound 3, diazaquinomycin A]
- reversal of antibiotic properties by thymidine (M. tuberculosis [1]): no reversal
- inhibition of enzyme activity (MtThyX): did not significantly inhibit
- MIC (P. mirabilis): 64 µg/mL (≈ 181 µM)
- MIC (M. avium): 3.85 µg/mL (≈ 10.9 µM)
- MIC (B. cereus 10987): 12.5 µg/mL (≈ 35.3 µM)
- MIC (B. subtilis): 100 µg/mL (≈ 282 µM)
- inhibition of enzyme activity [2]: did not significantly inhibit
- efflux ratio (Caco-2): 0.2
- permeability (from apical to basolateral) (Caco-2): 4.4 ×10⁻⁶ cm/s
- permeability (from basolateral to apical) (Caco-2): 0.9 ×10⁻⁶ cm/s
- recovery (from apical to basolateral) (Caco-2): 82%
- recovery (from basolateral to apical) (Caco-2): 98%
- MIC (M. marinum): >7.5 µg/mL
- MIC (E. cloacae): 64 µg/mL (≈ 181 µM)
- MIC (B. thuringiensis): 25 µg/mL (≈ 70.5 µM)
- MIC (E. faecalis): 8 µg/mL (≈ 22.6 µM)
- MIC [3]: 32 µg/mL (≈ 90.3 µM)
- MIC (S. pyogenes): >25 µg/mL
- maximum room temperature concentration in DMSO (solubility): 600 µg/mL
- MIC (M. smegmatis): 4.56 µg/mL (≈ 12.9 µM)
- MIC (M. bovis BCG): 0.12 µg/mL (≈ 0.339 µM)
- toxicity in vivo [4]: acute toxicity
- MIC (B. cereus 14579): 25 µg/mL (≈ 70.5 µM)
- MIC (E. coli): 128 µg/mL (≈ 361 µM)
- MIC (M. kansasii): >7.5 µg/mL
- MIC (K. pneumoniae): 128 µg/mL (≈ 361 µM)
- MIC (E. faecium): 8 µg/mL (≈ 22.6 µM)
- MIC (S. pneumoniae): >10 µg/mL
- parent compound remaining [5]: 96%
- MBC99 (M. tuberculosis [6]): did not exhibit a significant MBC99
- MIC (B. anthracis): 6.25 µg/mL (≈ 17.6 µM)
- Ki [7]: 36 µM
- MIC (P. aeruginosa): 128 µg/mL (≈ 361 µM)
- MIC (A. baumannii): 128 µg/mL (≈ 361 µM)
- MIC (M. chelonae): >7.5 µg/mL
- MIC (M. abscessus): >7.5 µg/mL
- parent compound remaining [8]: 98%
- inhibition of enzyme activity (human ThyA (HsThyA)): did not significantly inhibit
- MIC (Micrococcus luteus): 1.13 µg/mL (≈ 3.19 µM)
- MIC [9]: 6.25 µg/mL (≈ 17.6 µM)
- tolerance in vivo [10]: well tolerated
- MIC [11]: 6.25 µg/mL (≈ 17.6 µM)
- MIC [12]: 0.72 µg/mL (≈ 2.03 µM)
- maximum room temperature concentration in water [13]: 0.15 µg/mL
